Where “and” joins values, the source holds several entries; their conditions need not be identical. Equal values may be shown once. *1 amine or outer side, *2 acyl side, *3 side chain or, on linkers, in order; H or OH if unused. Where a SMILES comes first, the peptide text is derived from it. Bridges are numbered along the chain shown (N, C = ends). Roman numbers before positions name the chains, in order. [ ]: non-standard residue; d: D form. Actinocin(9to1) = Cc1c2oc3c(C)ccc(C(=O)[*:1])c3nc-2c(C(=O)[*:2])c(N)c1=O; aThr = C[C@H](O)[C@H](N)C(=O)O; NMeV = CN[C@H](C(=O)O)C(C)C; Sar = CNCC(=O)O
Test system: HT29 xenograft, nude mice, s.c., tumor weight T/C%
Assay: NCI In Vivo Anticancer Drug Screen. Data for tumor model HT29;CX-1 Human Adenocarcinoma (MER+) (subcutaneous) in NU/NU Swiss (nude) mice
Details: endpoint: optimum tumor weight change, higher = larger tumour
Experimental: The antitumor activity of compounds was measured in mice bearing transplantable tumors. Survival or tumor size were measured and the results are expressed as the measurement made in the treated group (T) divided by the measurement made in the vehicle treated control group (C). The tumor model used in this assay is HT29;CX-1 Human Adenocarcinoma (MER+) (subcutaneous) in NU/NU Swiss (nude) mice

[1] = dose: 3.0 mg/kg/injection, schedule: Q04DX003 (ip), vehicle: suspension in saline
[2] = dose: 6.0 mg/kg/injection, schedule: Q04DX003 (ip), vehicle: suspension in saline
[3] = dose: 12.0 mg/kg/injection, schedule: Q04DX003 (ip), vehicle: suspension in saline
[4] = dose: 800.0 mg/kg/injection, schedule: Q04DX003 (ip), vehicle: saline
[5] = dose: 7.5 mg/kg/injection, schedule: Q04DX003 (ip), vehicle: saline
[6] = dose: 15.0 mg/kg/injection, schedule: Q04DX004 (ip), vehicle: saline
[7] = dose: 25.0 mg/kg/injection, schedule: Q04DX003 (ip), vehicle: saline
[8] = dose: 50.0 mg/kg/injection, schedule: Q04DX003 (ip), vehicle: saline
[9] = dose: 100.0 mg/kg/injection, schedule: Q04DX003 (ip), vehicle: saline
[10] = dose: 25.0 mg/kg/injection, schedule: Q04DX003 (ip), vehicle: Klucel (hydroxypropylcellulose) (HPC)
[11] = dose: 50.0 mg/kg/injection, schedule: Q04DX003 (ip), vehicle: Klucel (hydroxypropylcellulose) (HPC)
[12] = dose: 100.0 mg/kg/injection, schedule: Q04DX003 (ip), vehicle: Klucel (hydroxypropylcellulose) (HPC)
[13] = dose: 200.0 mg/kg/injection, schedule: Q04DX003 (ip), vehicle: saline

With CC(C)CCCCCCCCCCCCC(=O)NCC(=O)NC1C(O)C(O)C(Nc2ncnc3nc[nH]c23)OC1C(O)CO (stereo not drawn) the T/C [1] was 108 % of control and 110 % of control, the T/C [2] was 67 % of control and 79 % of control and the T/C [3] was 16 % of control and 40 % of control.
O=C(O)CP(=O)(O)O was tested, and the T/C [4] was 94 % of control and the T/C (dose: 1600.0 mg/kg/injection, schedule: Q04DX003 (ip), vehicle: saline) was 66 % of control.
For CCCCNCCCNCCCNC(=O)c1csc(-c2csc(CCNC(=O)C(NC(=O)C(C)C(O)C(C)NC(=O)C(NC(=O)c3nc(C(CC(N)=O)NCC(N)C(N)=O)nc(N)c3C)C(OC3OC(CO)C(O)C(O)C3OC3OC(CO)C(O)C(OC(N)=O)C3O)c3cnc[nH]3)C(C)O)n2)n1 (stereo not drawn), the T/C [5] was 75 % of control, the T/C (dose: 15.0 mg/kg/injection, schedule: Q04DX003 (ip), vehicle: saline) was 28 % of control and the T/C [6] was 40 % of control. For the same compound, the T/C (dose: 30.0 mg/kg/injection, schedule: Q04DX003 (ip), vehicle: saline) was 19 % of control and 33 % of control, the T/C (dose: 30.0 mg/kg/injection, schedule: Q04DX004 (ip), vehicle: saline) was 38 % of control and the T/C (dose: 60.0 mg/kg/injection, schedule: Q04DX003 (ip), vehicle: saline) was 20 % of control. The T/C (dose: 60.0 mg/kg/injection, schedule: Q04DX004 (ip), vehicle: saline) was 18 % of control and the T/C (dose: 120.0 mg/kg/injection, schedule: Q04DX003 (ip), vehicle: saline) was 2 % of control.
With CNC(=O)ON(C(C)=O)C(=O)NC the T/C [7] was 52 % of control, the T/C [8] was 59 % of control and the T/C [9] was 98 % of control.
With COc1cc([C@@H]2c3cc4c(c(O)c3C[C@H]3COC(=O)[C@@H]32)OCO4)cc(OC)c1OC the T/C (dose: 2.5 mg/kg/injection, schedule: Q04DX003 (ip), vehicle: saline) was 83 % of control, the T/C (dose: 5.0 mg/kg/injection, schedule: Q04DX003 (ip), vehicle: saline) was 114 % of control and the T/C (dose: 10.0 mg/kg/injection, schedule: Q04DX003 (ip), vehicle: saline) was 52 % of control.
O=P1(NCCCl)OCCCN1CCCl (stereo not drawn) was tested, and the T/C (dose: 25.0 mg/kg/injection, schedule: Q04DX003 (ip), vehicle: suspension in saline) was 78 % of control and the T/C (dose: 50.0 mg/kg/injection, schedule: Q04DX003 (ip), vehicle: suspension in saline) was 108 % of control.
In the case of O=C(O)C1(C(=O)O)CCC1.[NH2-].[NH2-].[Pt+2], the T/C (dose: 6.25 mg/kg/injection, schedule: Q04DX003 (ip), vehicle: dextrose) is reported as 109 % of control and the T/C (dose: 25.0 mg/kg/injection, schedule: Q04DX003 (ip), vehicle: dextrose) is reported as 69 % of control.
For CC(=O)Oc1ccc[nH]c1=O, the T/C (dose: 200.0 mg/kg/injection, schedule: Q04DX003 (ip), vehicle: saline with Tween-80) was 96 % of control and the T/C (dose: 400.0 mg/kg/injection, schedule: Q04DX003 (ip), vehicle: saline with Tween-80) was 111 % of control.
With COc1cc2c[n+](C)c3c4cc5c(cc4ccc3c2cc1OC)OCO5 the T/C (dose: 20.0 mg/kg/injection, schedule: Q04DX003 (ip), vehicle: saline with Tween-80) was 111 % of control, the T/C (dose: 40.0 mg/kg/injection, schedule: Q04DX003 (ip), vehicle: saline with Tween-80) was 124 % of control and the T/C (dose: 80.0 mg/kg/injection, schedule: Q04DX003 (ip), vehicle: saline with Tween-80) was 50 % of control.
C=C(C)[C@H]1Cc2c(ccc3c2O[C@@H]2COc4cc(OC)c(OC)cc4[C@@H]2C3=O)O1 was tested, and the T/C [1] was 90 % of control, the T/C [2] was 77 % of control and the T/C [3] was 91 % of control. For the same compound, the T/C (dose: 12.5 mg/kg/injection, schedule: Q04DX003 (ip), vehicle: saline) was 70 % of control, the T/C [7] was 102 % of control and the T/C [8] was 50 % of control.
In the case of CCOC(=O)C1C2OC(=O)C(C(=O)C2CN(CCCl)CCCl)C1C1CC=C(CC2=CCC(C3C4C(=O)OC(C(CN(CCCl)CCCl)C4=O)C3C(=O)OCC)CC2)CC1 (stereo not drawn), the T/C [10] is reported as 91 % of control, the T/C [11] is reported as 66 % of control and the T/C [12] is reported as 69 % of control.
In the case of Nc1cc2[nH]cnc2c(=O)[nH]1, the T/C [8] is reported as 89 % of control, the T/C [9] is reported as 83 % of control and the T/C [13] is reported as 93 % of control.
With CC[C@](O)(C(=O)O)c1cc2n(c(=O)c1CO)Cc1cc3ccccc3nc1-2 the T/C (dose: 9.0 mg/kg/injection, schedule: Q04DX003 (ip), vehicle: saline) was 36 % of control.
Cc1c(N)nc([C@H](CC(N)=O)NC[C@H](N)C(N)=O)nc1C(=O)N[C@H](C(=O)N[C@H](C)[C@@H](O)[C@H](C)C(=O)N[C@H](C(=O)NCCc1nc(-c2nc(C(=O)NCCC[S+](C)C)cs2)cs1)[C@@H](C)O)C(OC1OC(CO)C(O)C(O)C1OC1OC(CO)C(O)C(OC(N)=O)C1O)c1cnc[nH]1 (stereo partly drawn) was tested, and the T/C (dose: 3.75 mg/kg/injection, schedule: Q04DX003 (ip), vehicle: saline) was 71 % of control, the T/C (dose: 4.0 mg/kg/injection, schedule: Q04DX003 (ip), vehicle: saline) was 64 % of control and the T/C [5] was 50 % of control and 70 % of control. The T/C (dose: 7.5 mg/kg/injection, schedule: Q04DX004 (ip), vehicle: saline) was 37 % of control, the T/C (dose: 8.0 mg/kg/injection, schedule: Q04DX003 (ip), vehicle: saline) was 49 % of control and the T/C [6] was 26 % of control. For the same compound, the T/C (dose: 16.0 mg/kg/injection, schedule: Q04DX003 (ip), vehicle: saline) was 28 % of control and 33 % of control and the T/C (dose: 32.0 mg/kg/injection, schedule: Q04DX003 (ip), vehicle: saline) was 11 % of control.
CC(=O)OCC1OC(n2ccc(N)nc2=O)C(OC(C)=O)C1OC(C)=O (stereo not drawn) was tested, and the T/C (dose: 100.0 mg/kg/injection, schedule: Q04DX003 (ip), vehicle: suspension in saline) was 65 % of control and 89 % of control and the T/C (dose: 200.0 mg/kg/injection, schedule: Q04DX003 (ip), vehicle: suspension in saline) was 56 % of control.
In the case of N=c1ccn2c(n1)OC1C(O)C(CO)OC12 (stereo not drawn), the T/C [8] is reported as 70 % of control, the T/C [9] is reported as 49 % of control and the T/C [13] is reported as 71 % of control and 77 % of control. The T/C [4] was 40 % of control.
In the case of Cc1c2oc3c(C)ccc(C(=O)N[C@@H]4C(=O)N[C@H](C(C)C)C(=O)N5CCC[C@H]5C(=O)N(C)CC(=O)N(C)[C@@H](C(C)C)C(=O)O[C@H]4C)c3nc-2c(C(=O)N[C@@H]2C(=O)N[C@H](C(C)C)C(=O)N3CCC[C@H]3C(=O)N(C)CC(=O)N(C)[C@@H](C(C)C)C(=O)O[C@H]2C)c(N)c1=O (I: [aThr][dV]P[Sar][NMeV] / II: [aThr][dV]P[Sar][NMeV]; ester I:1-I:C, II:1-II:C; linker I:N-II:N via Actinocin(9to1)), the T/C (dose: 150.0 micrograms/kg/injection, schedule: Q04DX003 (ip), vehicle: saline) is reported as 54 % of control and the T/C (dose: 300.0 micrograms/kg/injection, schedule: Q04DX003 (ip), vehicle: saline) is reported as 42 % of control.
For O=C1N[C@@H]([C@H]2CC[C@H](Cl)CN2)C(=O)N[C@H]1[C@H]1CC[C@H](Cl)CN1, the T/C (dose: 0.31 mg/kg/injection, schedule: Q01DX001 (ip), vehicle: water) was 53 % of control, the T/C (dose: 0.63 mg/kg/injection, schedule: Q01DX001 (ip), vehicle: water) was 64 % of control and the T/C (dose: 1.25 mg/kg/injection, schedule: Q01DX001 (ip), vehicle: water) was 79 % of control.
For O=S(CCCl)CCCl, the T/C [10] was 72 % of control, the T/C [11] was 51 % of control and the T/C [12] was 65 % of control.

Reference: PubChem BioAssay AID202 (DTP/NCI, 2004)
